Assay [1] concerns HEK-293 cells. The assay can be described thus: CDC assay on HEK-293 cells. Particulars: 250 nM, anti-DNP antibody, 10% complement, cck8 method, FIG. 11. It is filed as cell-based. How it is done: CDC assay implementation: (1) HEK-293, SKOV-3, HT-29 cells were seeded in 96-well plates at a concentration of 5,000 cells/well. After the cells were fully attached, added with RGD analogues (SEQ ID NO:9), RGD-DNP and RGD-linker-DNP compounds at a final concentration of 250 nM and added a certain concentration of anti-DNP antibody at the same time. After 2 hours of incubation at 37° C., a final concentration of 10% of the complement solution was added and incubated for 1 hour at 37° C. After the incubation, the cell viability was measured by the cck8 method.

In assay [2] the test system is HT-29 (high expression of integrin αvβ5). The assay is described as follows: Flow cytometry on HT-29 cells. It is filed as cell-based. Particulars: FIG. 11. How it is done: (§1) Cell assay implementation: cell culture: commercial cells HEK-293 (high expression of integrin αvβ3), SKOV-3 (high expression of integrin αvβ3, αvβ 5), and HT-29 (high expression of integrin αvβ5) was cultured in DMEM complete medium. All cell culture conditions were 37° C., 5% CO2. Flow cytometry assay: (1) The cells were digested with trypsin, resuspended in flow medium diluted to 1×10^5 cells. 400 μL of cells (40,000 cells) were added to a sterile EP tube. (2) RGD analogues (SEQ ID NO:9), RGD-DNP and RGD-linker-DNP compounds were added […], incubate on ice for 1 h. Then the cells were washed and incubated with fluorescent secondary antibody for 0.5 h. (3) the cells were thoroughly washed gently with a flow buffer, resuspended, and analyzed by instruments.

Assay [3] deals with HEK-293 cells. The assay can be described thus: ADCC assay on HEK-293 cells. Format: cell-based. The conditions noted are these: 250 nM, anti-DNP antibody, PBMC, LDH method, FIG. 11. The method, then:
ADCC assay implementation: (1) HEK-293, SKOV-3, HT-29 cells were seeded in 96-well plates at a concentration of 10,000 cells/well. After the cells were fully attached, added with RGD analogues (SEQ ID NO:9), RGD-DNP and RGD-linker-DNP compounds at a final concentration of 250 nM and immediately added a certain concentration of anti-DNP antibody. (2) After incubation for a period of time, freshly extracted PBMC cells were added at a certain effect target ratio for a certain period of time. (3) The supernatant was removed by centrifugation, and cytotoxicity was measured by the LDH method.

Assay [4] relates to HEK-293 (high expression of integrin αvβ3). The assay is described as follows: Flow cytometry on HEK-293 cells. It is filed as cell-based. The conditions noted are these: FIG. 11. The method, then: as §1
In assay [5] the test system is SKOV-3 (high expression of integrin αvβ3, αvβ 5). The assay is described as follows: Flow cytometry on SKOV-3 cells. It is filed as cell-based. Particulars: FIG. 11. The method, then: as §1
In assay [6] the test system is MCF7 cells (LHRH-R positive). The assay can be described thus: CDC experiment on MCF7 cells. It is filed as cell-based. The conditions noted are these: MCF-7 cells, 250 nM, anti-Rha antibody, 10% rabbit complement, cck8 kit, FIG. 7. How it is done:
(§2) Commercialized MCF7 cells (LHRH-R positive) and UCI-107(LHRH-R negative) were grown in DMEM supplemented with 10% FBS, 1% penicillin-streptomycin. All cells were cultured at 37° C. in a 5% CO2 humidified atmosphere.
(1) MCF7 cells or UCI-107 were seeded in 96-well plates at a concentration of 5000 cells/well and then treated with LHRH, LHRH-Rha, LHRH-TEG-Rha and LHRH-HEG-Rha at a final concentration of 250 nM and a certain concentration of anti-Rha antibody. Following the incubation at 37° C. for 2 h, next, diluted rabbit complement at a final concentration of 10% were added to each well. Following the incubation at 37° C. for 1 h, the results detected using cck8 kit.

Assay [7] has as its system MCF7 cells (LHRH-R positive). The assay can be described thus: Flow cytometry, recruitment of anti-Rha antibody on MCF7 cells. Format: cell-based. Particulars: 250 nM, anti-Rha antibody 20 μg/mL, FIG. 7. The method, then:
as §2
(1) Cells were cultured and detached with trypsin-EDTA and then resuspended to 1.0×10^5 cells/mL. Forty thousand of these cells were added into sterile centrifuge tubes. (2) LHRH, LHRH-Rha, LHRH-TEG-Rha and LHRH-HEG-Rha compounds were added at a final concentration of 250 nM. For the blank group (Negative), the corresponding volume of PBS was added. And anti-Rha antibody at a final concentration of 20 μg/mL in all groups. These cells were incubated on ice for 60 min, washed with flow cytometry buffer. And fluorescent secondary antibody was immediately added in all groups. These cells were incubated on ice for 30 min, (3) washed with flow cytometry buffer and then analyzed using an Accuri C6 flow cytometer.
In general terms: Flow cytometry measures light scatter and fluorescence of single cells or particles in a stream.

For assay [8], the system named is MCF7 cells (LHRH-R positive). The assay is described as follows: ADCC experiment on MCF7 cells. It is filed as cell-based. Particulars: MCF-7 cells, 250 nM, anti-Rha antibody, PBMC, LDH method, FIG. 7. How it is done: as §2
(1) MCF7 or UCI-107 cells were seeded in 96-well plates at a concentration of 10,000 cells/well and then treated with LHRH, LHRH-Rha, LHRH-TEG-Rha and LHRH-HEG-Rha at a final concentration of 250 nM and a certain concentration of anti-Rha antibody. (2) Following the incubation period, freshly extracted PBMC cells were added at a certain effective target ratio, (3) and the supernatant was treated by centrifugation for minutes, using LDH method to measure the cytotoxicity.

Another assay addresses T1, LHRH-R (UniProt P30968 1-328).
T1 sequence (looked up): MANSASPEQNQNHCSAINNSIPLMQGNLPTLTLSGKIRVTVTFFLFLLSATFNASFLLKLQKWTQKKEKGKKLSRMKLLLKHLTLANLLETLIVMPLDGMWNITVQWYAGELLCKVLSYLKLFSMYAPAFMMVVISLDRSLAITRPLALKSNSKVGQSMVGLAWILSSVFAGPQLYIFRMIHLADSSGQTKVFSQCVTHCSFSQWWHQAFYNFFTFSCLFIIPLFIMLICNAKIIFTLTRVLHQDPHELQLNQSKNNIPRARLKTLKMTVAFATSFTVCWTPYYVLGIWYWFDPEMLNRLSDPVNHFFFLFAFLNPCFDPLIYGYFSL
The assay can be described thus: cell-based or functional assay.

In the next assay the target is T2, HER2 (UniProt P04626 23-1255, limits assumed).
T2 construct: whole, on cells; also called human epidermal growth factor receptor 2; HER2 (on SKBR3 cells)
The assay is described as follows: flow cytometry on SKBR3 cells at 250 nM, detected with Alexa 488 rabbit anti-Rha IgG.

In assay [9] the test system is SKBR3 cells. The assay is described as follows: CDC assay on SKBR3 cells. Particulars: 20% normal human serum, cck8 kit, FIG. 6(B). Format: cell-based. How it is done:
(§3) SKBR3 (HER2 positive) and MCF7 cells (HER2 negative) were grown in DMEM supplemented with 10% FBS, 1% penicillin-streptomycin. All cells were cultured at 37° C. in a 5% CO2 humidified atmosphere.
(1) SKBR3 cells were seeded in 96-well plates at a concentration of 5000 cells/well and (2) then treated with C7b and Rhaconjugated C7b in the presence of 20% normal human serum (the source of anti-Rha IgG and complement). (3) Following the incubation period, the results detected using cck8 kit.

Assay [10] concerns SKBR3 cells. The assay can be described thus: ADCC assay on SKBR3 cells. Format: cell-based. Particulars: rabbit anti-Rha IgG, human peripheral blood mononuclear cells, LDH kit, FIG. 6(A). The method, then: as §3
(1) SKBR3 cells were seeded in 96-well plates at a concentration of 10,000 cells/well and then treated with C7b and Rha conjugated C7b in the presence of rabbit anti-Rha IgG antibodies. (2) Next, freshly isolated human peripheral blood mononuclear cells were added to each well. (3) Following the incubation period, the supernatant was transferred onto a new black 96-well and detected using LDH kit.

The values below come from patent US12054560B2, “Bifunctional molecules recruiting antibodies and targeting cancer cells” (JIANGNAN UNIVERSITY, priority 2017, dated 2024).

Square brackets hold non-standard residues; d marks the D form. Primed or numbered codes have the meaning given here. Side chains are listed from the residue outwards. oligo‑glycol (n:2) = oligo-glycol tether (n=2) linking D-Lys(N3) to alkynyl rhamnose by click reaction; oligo‑glycol (n:5) = oligo-glycol tether (n=5) linking D-Lys(N3) to alkynyl rhamnose by click reaction; dLys(N3)′ = its azide, alkyne or alkene has reacted where a group follows in round brackets; rhamnose derivative = not defined here; click linkage = not defined here; pGlu = O=C1CC[C@@H](C(=O)O)N1

On to “RGD-DNP: DNP coupled to cyclic RGD analogue Cyclo-(DFKRG), short connecting arm (cyclo(DFKRG); also: DNP conjugated (site only in drawing))”, for which the CDC kill rate with HEK-293 cells [1] is reported as 21%. Further, the binding to cells entry in [2], in assay [4] and in assay [5] was “can bind” throughout. In addition, in the assay on HEK-293 cells [3], the ADCC kill rate was 18%.

Turning to “LHRH-HEG-Rha: [6-D-Lys(N3)]-LHRH peptide click-coupled to rhamnose derivative, oligo-glycol linker n=5 ([pGlu]HWSY[dLys(N3)′]([click linkage-oligo‑glycol n:5-rhamnose derivative])LRPG-NH2; reading uncertain; also: rhamnose derivative attached via click (triazole) to D-Lys6, oligo-glycol n=5, structure in drawing)”, the CDC-mediated killing rate result in assay [6] is reported as “about 26%”. Further, in assay [7], the “recruitment of anti-Rha antibodies to MCF-7 tumor cells” value (“recruitment of anti-Rha antibodies” below) is “could recruit anti-Rha antibodies”. Also, the ADCC-mediated killing rate result in assay [8] is listed as “about 33%”.

“LHRH-TEG-Rha: [6-D-Lys(N3)]-LHRH peptide click-coupled to rhamnose derivative, oligo-glycol linker n=2 ([pGlu]HWSY[dLys(N3)′]([click linkage-oligo‑glycol n:2-rhamnose derivative])LRPG-NH2; reading uncertain; also: rhamnose derivative attached via click (triazole) to D-Lys6, oligo-glycol n=2, structure in drawing)”: in assay [6], the CDC-mediated killing rate entry is recorded as “about 26%”. Further, in assay [7], the “recruitment of anti-Rha antibodies” value is given as “could recruit anti-Rha antibodies”. Besides, the ADCC-mediated killing rate entry in assay [8] is recorded as “about 33%”.

As for “RGD-linker-DNP: DNP coupled through a linker to cyclic RGD analogue Cyclo-(DFKRG), long connecting arm (cyclo(DFKRG); also: DNP conjugated via long linker (site only in drawing))”, the CDC kill rate in the assay with HEK-293 cells [1] stood at 42%. The binding to cells entry in [2], in [4] and in [5] was “can bind” in each case. In the assay on HEK-293 cells [3], this molecule showed an ADCC kill rate of 38%.

Turning to “LHRH-Rha: [6-D-Lys(N3)]-LHRH peptide click-coupled to rhamnose derivative, oligo-glycol linker n=0 ([pGlu]HWSYKLRPG-NH2; not fully specified (residue 6); printed as Glp-His-Trp-Ser-Tyr-D-Lys(N3)-Leu-Arg-Pro-Gly-NH2; also: rhamnose derivative attached via click (triazole) to D-Lys6, oligo-glycol n=0, structure in drawing)”, in assay [6], the CDC-mediated killing rate result is “about 26%”. Moreover, the “recruitment of anti-Rha antibodies” value in [7] was “could recruit anti-Rha antibodies”. Moreover, in [8], the ADCC-mediated killing rate entry is reported as “about 33%”.

In the assay with LHRH-R, [pGlu]HWSY[dLys(N3)′](rhamnose)LRPG-NH2 [LHRH-Rha] came in with an ADCC-mediated killing rate of roughly 33% and a CDC-mediated killing rate of roughly 26%.

B1: C7b-triEGRha (VHH)
VHH: QVQLVQSGGGLVQAGGSLRLSCAASGRTFSSYAMAWFRQAPGKEREFVAAISWSGANIYVADSVKGRFTISRDNAKDTVYLQMNSLKPEDTAVYYCAVKLGFAPVEERQYDYWGQGTQVTVSS
modifications: C-terminal LPETGG motif ligated by sortase A (enhanced SrtA) to GGG-triEGRha (triethylene glycol-rhamnose)
notes: also called Rha conjugated C7b
In the case of B1, the binding result with HER2 is listed as “binds”.

B2: C7b-hexEGRha (VHH)
VHH: B1 VHH
modifications: C-terminal LPETGG motif ligated by sortase A (enhanced SrtA) to GGG-hexEGRha (hexaethylene glycol-rhamnose)
notes: as for B1
For B2, the binding result in the assay with HER2 was “binds”.

B3: C7b-triEGRha: nanobody C7b linked by SrtA to small molecule GGG-triEGRha (conjugate)
VHH: MQVQLVQSGGGLVQAGGSLRLSCAASGRTFSSYAMAWFRQAPGKEREFVAAISWSGANIYVADSVKGRFTISRDNAKDTVYLQMNSLKPEDTAVYYCAVKLGFAPVEERQYDYWGQGTQVTVSSLPETGG
Turning to B3, the CDC efficacy in the assay with SKBR3 cells [9] is given as 36%. Further, the ADCC efficacy in the assay with SKBR3 cells [10] worked out at 32%.

B4: C7b-hexEGRha: nanobody C7b linked by SrtA to small molecule GGG-hexEGRha (conjugate)
VHH: B3 VHH
As for B4, the CDC efficacy with SKBR3 cells [9] is listed as 47%. Also, the ADCC efficacy with SKBR3 cells [10] came to 43%.

Regarding [pGlu]HWSY[dLys(N3)′]([oligo‑glycol (n:2)-rhamnose])LRPG-NH2 [LHRH-TEG-Rha], in the assay with LHRH-R, the ADCC-mediated killing rate is roughly 33% and the CDC-mediated killing rate was roughly 26%.

In the assay with LHRH-R, [pGlu]HWSY[dLys(N3)′]([oligo‑glycol (n:5)-rhamnose])LRPG-NH2 [LHRH-HEG-Rha] had an ADCC-mediated killing rate of roughly 33% and a CDC-mediated killing rate of roughly 26%.
